The test relates to CD2F1 mice, L1210 leukemia ip, survival T/C. As to the kind of experiment: NCI In Vivo Anticancer Drug Screen. Data for tumor model L1210 Leukemia (intraperitoneal) in CD2F1 (CDF1) mice. Particulars: higher = longer survival. The essentials:
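Ratio T/C, where T is the treated-group value and C the vehicle-dosed control value, from mice implanted with a transplantable tumor.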

[1] abbreviates: endpoint: mean survival time, dose: 100.0 mg/kg/injection, schedule: Q04DX003 (ip), vehicle: saline with Tween-80.
Setting [2] is: endpoint: mean survival time, dose: 200.0 mg/kg/injection, schedule: Q04DX003 (ip), vehicle: saline with Tween-80.
The mark [3] stands for this setting: endpoint: mean survival time, dose: 400.0 mg/kg/injection, schedule: Q04DX003 (ip), vehicle: saline with Tween-80.
[4] abbreviates: endpoint: mean survival time, dose: 100.0 mg/kg/injection, schedule: Q01DX001 (ip), vehicle: saline with Tween-80.
The mark [5] stands for this setting: endpoint: mean survival time, dose: 200.0 mg/kg/injection, schedule: Q01DX001 (ip), vehicle: saline with Tween-80.
Setting [6] is: endpoint: mean survival time, dose: 400.0 mg/kg/injection, schedule: Q01DX001 (ip), vehicle: saline with Tween-80.
[7] abbreviates: endpoint: mean survival time, dose: 100.0 mg/kg/injection, schedule: Q01DX009 (ip), vehicle: saline with Tween-80.
Where [8] appears, read: endpoint: mean survival time, dose: 200.0 mg/kg/injection, schedule: Q01DX009 (ip), vehicle: saline with Tween-80.

SMILES strings stand for the structures. Values joined by “and” are separate entries in the source; they are usually repeats but may differ in a detail not shown here. Equal entries are not always repeated. Inconclusive results and toxic doses are left out.

As to `CSC(=S)NN=C(C)C`, the T/C by setting is: (endpoint: mean survival time, dose: 6.25 mg/kg/injection, schedule: Q01DX009 (ip), vehicle: saline sonified) 89 % of control; (endpoint: mean survival time, dose: 6.25 mg/kg/injection, schedule: Q04DX003 (ip), vehicle: saline with Tween-80) 96 % of control; (endpoint: mean survival time, dose: 12.5 mg/kg/injection, schedule: Q01DX009 (ip), vehicle: saline sonified) 87 % of control; (endpoint: mean survival time, dose: 12.5 mg/kg/injection, schedule: Q04DX003 (ip), vehicle: saline with Tween-80) 96 % of control.
Take `COc1cc(C=Nc2cccc(F)c2)ccc1N(CCCl)CCCl`: the T/C runs as follows: (endpoint: mean survival time, dose: 16.0 mg/kg/injection, schedule: Q01DX015 (ip), vehicle: saline) 157 % of control; (endpoint: mean survival time, dose: 25.0 mg/kg/injection, schedule: Q01DX001 (ip), vehicle: other) 121 % of control; (endpoint: mean survival time, dose: 50.0 mg/kg/injection, schedule: Q01DX001 (ip), vehicle: other) 119 % of control.
Regarding `COc1ccc(NC(=O)Oc2cccc3ccccc23)c(Cl)c1`, the T/C (endpoint: mean survival time, dose: 50.0 mg/kg/injection, schedule: Q01DX009 (ip), vehicle: Klucel (hydroxypropylcellulose) (HPC)) was 100 % of control; the T/C (endpoint: mean survival time, dose: 100.0 mg/kg/injection, schedule: Q01DX009 (ip), vehicle: Klucel (hydroxypropylcellulose) (HPC)) is 100 % of control; the T/C (endpoint: mean survival time, dose: 100.0 mg/kg/injection, schedule: Q04DX003 (ip), vehicle: Klucel (hydroxypropylcellulose) (HPC)) is 106 % of control; the T/C (endpoint: mean survival time, dose: 200.0 mg/kg/injection, schedule: Q01DX009 (ip), vehicle: Klucel (hydroxypropylcellulose) (HPC)) is 100 % of control; the T/C (endpoint: mean survival time, dose: 200.0 mg/kg/injection, schedule: Q04DX003 (ip), vehicle: Klucel (hydroxypropylcellulose) (HPC)) is 106 % of control; the T/C (endpoint: mean survival time, dose: 400.0 mg/kg/injection, schedule: Q04DX003 (ip), vehicle: Klucel (hydroxypropylcellulose) (HPC)) is 102 % of control.
Turning to `O=C(O)C(O)C(O)C(OC1OC(CO)C(O)C(O)C1O)C(O)CO.[Br][Pt].[NH-]C1CCCCC1[NH-]` (stereo not drawn), the T/C is 158 % of control (endpoint: median survival time, dose: 6.25 mg/kg/injection, schedule: Q04DX003 (ip), vehicle: saline); 175 % of control (endpoint: median survival time, dose: 12.5 mg/kg/injection, schedule: Q04DX003 (ip), vehicle: saline); 163 % of control and 212 % of control (endpoint: median survival time, dose: 25.0 mg/kg/injection, schedule: Q04DX003 (ip), vehicle: saline); 178 % of control and 200 % of control (endpoint: median survival time, dose: 50.0 mg/kg/injection, schedule: Q04DX003 (ip), vehicle: saline).
As for `CO[C@H]1C[C@H](O[C@H]2CC[C@]3(C=O)[C@H]4CC[C@]5(C)[C@@H](C6=CC(=O)OC6)CC[C@]5(O)[C@@H]4CC[C@]3(O)C2)O[C@H](C)[C@H]1O[C@@H]1O[C@H](CO)[C@@H](O)[C@H](O)[C@H]1O`, the T/C was 102 % of control (endpoint: mean survival time, dose: 0.25 mg/kg/injection, schedule: Q01DX009 (ip), vehicle: saline); 96 % of control (endpoint: mean survival time, dose: 0.5 mg/kg/injection, schedule: Q01DX009 (ip), vehicle: saline); 110 % of control (endpoint: mean survival time, dose: 1.0 mg/kg/injection, schedule: Q01DX009 (ip), vehicle: saline).
In the case of `COc1cc(C(=O)N2CC3CCC(CC3)C2)cc(OC)c1OC`, the T/C is 93 % of control under setting [1], 96 % of control under setting [2] and 96 % of control under setting [3].
In the case of `CCCN1C(=O)C2C3CCC(O3)C2C1=O` (stereo not drawn), the T/C (endpoint: mean survival time, dose: 100.0 mg/kg/injection, schedule: Q04DX002 (ip), vehicle: saline with Tween-80) is 95 % of control; the T/C (endpoint: mean survival time, dose: 200.0 mg/kg/injection, schedule: Q04DX002 (ip), vehicle: saline with Tween-80) is 106 % of control; the T/C (endpoint: mean survival time, dose: 400.0 mg/kg/injection, schedule: Q04DX002 (ip), vehicle: saline with Tween-80) was 102 % of control.
For the molecule `COC(=O)C(CS)NC(=O)CCNC(C)=O` (stereo not drawn), the T/C reads like this: (endpoint: mean survival time, dose: 12.5 mg/kg/injection, schedule: Q01DX009 (ip), vehicle: water) 97 % of control; (endpoint: mean survival time, dose: 25.0 mg/kg/injection, schedule: Q01DX009 (ip), vehicle: water) 100 % of control; (endpoint: mean survival time, dose: 50.0 mg/kg/injection, schedule: Q01DX009 (ip), vehicle: water) 97 % of control; (endpoint: mean survival time, dose: 100.0 mg/kg/injection, schedule: Q01DX009 (ip), vehicle: water) 104 % of control; (endpoint: mean survival time, dose: 200.0 mg/kg/injection, schedule: Q01DX009 (ip), vehicle: water) 100 % of control.
Regarding `O=C(/C=C/C(=N\Nc1ccccc1)c1ccccc1)c1ccccc1`, the T/C runs as follows: under setting [4], 96 % of control; under setting [5], 94 % of control; under setting [6], 97 % of control.
As to `CSc1ncc(N=C=O)c(=O)[nH]1`, the T/C is 94 % of control under setting [4] and 94 % of control under setting [5].
Take `Oc1ccccc1/C=N/c1nc2ccc(Cl)cc2s1.Oc1ccccc1/C=N/c1nc2ccc(Cl)cc2s1.[Zn]`: the T/C (endpoint: mean survival time, dose: 25.0 mg/kg/injection, schedule: Q01DX001 (ip), vehicle: saline) is 96 % of control; the T/C (endpoint: mean survival time, dose: 50.0 mg/kg/injection, schedule: Q01DX001 (ip), vehicle: saline) is 91 % of control; the T/C (endpoint: mean survival time, dose: 100.0 mg/kg/injection, schedule: Q01DX001 (ip), vehicle: saline) is 87 % of control.
Consider `COc1cc(N)nc(OC)n1`, for which the T/C runs as follows: under setting [1], 94 % of control; under setting [2], 100 % of control; under setting [3], 87 % of control.
Regarding `CC(C)(C)OOC(=O)Nc1ccc(Cl)cc1`, the T/C is 88 % of control (endpoint: mean survival time, dose: 25.0 mg/kg/injection, schedule: Q01DX001 (ip), vehicle: saline with Tween-80); 92 % of control (endpoint: mean survival time, dose: 50.0 mg/kg/injection, schedule: Q01DX001 (ip), vehicle: saline with Tween-80); 88 % of control under setting [4].
As to `CCOc1ccccc1C1=CCCCCC1`, the T/C was 98 % of control under setting [1], 107 % of control under setting [2] and 103 % of control under setting [3].
As for `NC(=O)C1CC1c1ccccc1` (stereo not drawn), the T/C is 100 % of control under setting [4], 102 % of control under setting [5] and 96 % of control under setting [6].
For the molecule `CCOC(=O)C(Cc1ccc(CC(NC(C)=O)(C(=O)OCC)C(=O)OCC)cc1)(NC(C)=O)C(=O)OCC`, the T/C runs as follows: (endpoint: mean survival time, dose: 12.5 mg/kg/injection, schedule: Q01DX009 (ip), vehicle: other) 96 % of control; (endpoint: mean survival time, dose: 25.0 mg/kg/injection, schedule: Q01DX009 (ip), vehicle: other) 94 % of control; (endpoint: mean survival time, dose: 50.0 mg/kg/injection, schedule: Q01DX009 (ip), vehicle: other) 97 % of control; (endpoint: mean survival time, dose: 100.0 mg/kg/injection, schedule: Q01DX009 (ip), vehicle: other) 91 % of control; (endpoint: mean survival time, dose: 200.0 mg/kg/injection, schedule: Q01DX009 (ip), vehicle: other) 92 % of control.
Turning to `FC(F)(F)Cc1cccc(C(F)(F)F)c1`, the T/C is 109 % of control under setting [1], 108 % of control under setting [2] and 100 % of control under setting [3].
For the molecule `C1=CC23CC(c4ccccc42)C2c4ccccc4C23C=C1` (stereo not drawn), the T/C under setting [7] is 101 % of control; the T/C under setting [1] was 93 % of control; the T/C under setting [8] is 101 % of control; the T/C under setting [2] was 95 % of control; the T/C (endpoint: mean survival time, dose: 400.0 mg/kg/injection, schedule: Q01DX009 (ip), vehicle: saline with Tween-80) was 95 % of control; the T/C under setting [3] is 93 % of control.
`N/N=C(\C(=N\N)c1ccccc1)c1ccccc1`: the T/C is, setting by setting: under setting [1], 95 % of control; under setting [2], 93 % of control; under setting [3], 89 % of control.
`Nc1cc2[nH]cnc2c([Se])n1`: the T/C runs as follows: under setting [1], 101 % of control; under setting [2], 107 % of control.
Turning to `[CH3][Sn]([CH3])([Br])[CH2]CCBr`, the T/C is 100 % of control (endpoint: mean survival time, dose: 0.39 mg/kg/injection, schedule: Q01DX009 (ip), vehicle: saline with Tween-80); 90 % of control (endpoint: mean survival time, dose: 0.39 mg/kg/injection, schedule: Q01DX009 (ip), vehicle: saline); 100 % of control (endpoint: mean survival time, dose: 0.78 mg/kg/injection, schedule: Q01DX009 (ip), vehicle: saline with Tween-80); 90 % of control (endpoint: mean survival time, dose: 0.78 mg/kg/injection, schedule: Q01DX009 (ip), vehicle: saline); 97 % of control (endpoint: mean survival time, dose: 1.56 mg/kg/injection, schedule: Q01DX009 (ip), vehicle: saline).
As for `CC/C(C)=C1\OC(=O)C(C)C(O)C(Cc2cccnc2)NC(=O)C(NC(=O)c2ncccc2O)C(C)OC1=O` (stereo not drawn), the T/C is 96 % of control (endpoint: mean survival time, dose: 3.13 mg/kg/injection, schedule: Q01DX009 (ip), vehicle: saline with Tween-80); 95 % of control (endpoint: mean survival time, dose: 6.25 mg/kg/injection, schedule: Q01DX009 (ip), vehicle: saline with Tween-80); 96 % of control (endpoint: mean survival time, dose: 12.5 mg/kg/injection, schedule: Q01DX009 (ip), vehicle: saline with Tween-80); 96 % of control (endpoint: mean survival time, dose: 25.0 mg/kg/injection, schedule: Q01DX009 (ip), vehicle: saline with Tween-80).
On to `O=S(O)C(=Nc1ccccc1)Nc1ccccc1`, for which the T/C by setting is: under setting [7], 94 % of control; under setting [8], 106 % of control.
As for `C=CCNC(=O)OCC`, the T/C under setting [7] is 100 % of control and the T/C under setting [8] is 98 % of control.
